6 molecules from patent US20160052887A1, “PHARMACEUTICALLY ACCEPTABLE AMINE SALTS OF PITAVASTATIN” (DSM SINOCHEM PHARMACEUTICALS NETHERLANDS B.V., priority 2013, published 2016) can be followed below.

Data set [1] can be described thus: Solubility of pitavastatin salts in buffers of pH 1.2 and pH 4.8. Type of data set: physicochemical. The settings on record: for Appearance: appearance of the mixture at the reported pH and amount of salt added. From the text:
The pharmaceutically acceptable pitavastatin salts obtained above were subjected to solubility measurements. […] Amounts of added salt were increased as long as the resulting solution remained clear and the resulting pH value, as well as the total amount of salt added, are reported in the below Table.
The following observations were made. The solubility of pitavastatin calcium salt is very low, initially the compound floated on the buffer. In contrast, the solubility of the amine salts was much higher; in many cases solutions were still clear after more than 160 mg·g^−1 solution was added. For the amine salts, pH values increased to values as reported in the Table upon increasing addition of salt (indicating exhaustion of buffer capacity due to high salt solubility). […] Qualitatively, the speed of dissolution of the amine salts was much faster than the speed of dissolution of the calcium salt. The pitavastatin amine salts were not hygroscopic (qualitative determination).

Data set [2] is described as follows: Basic toxicological evaluation.

The structures appear in SMILES notation. Counter-ions that a name gives are not always drawn.

On to `O=C(O)C[C@H](O)C[C@H](O)/C=C/c1c(C2CC2)nc2ccccc2c1-c1ccc(F)cc1` [Tris(hydroxymethyl)-aminomethane salt, pitavastatin-tris(hydroxymethyl)aminomethane salt], for which the Appearance result in data set [1] is given as “Clear”. As to `NCc1ccco1` [1-furfurylamine], the Toxicological classification result in data set [2] is given as “very safe”. Regarding `O=C(O)C[C@H](O)C[C@H](O)/C=C/c1c(C2CC2)nc2ccccc2c1-c1ccc(F)cc1` [Choline salt, pitavastatin-choline salt], the Appearance result in data set [1] is “Clear”. With `NCc1ccco1.O=C(O)C[C@H](O)C[C@H](O)/C=C/c1c(C2CC2)nc2ccccc2c1-c1ccc(F)cc1` [Furfurylamine salt, pitavastatin-furfuryl amine salt], in data set [1], the Appearance entry is given as “Suspension”.

On to `O=C(O)C[C@H](O)C[C@H](O)/C=C/c1c(C2CC2)nc2ccccc2c1-c1ccc(F)cc1` [Calcium salt, pitavastatin-Ca, reference compound], for which the Appearance result in data set [1] is on record as “Suspension”. Also, in data set [1] (aqueous buffers), the “Solubility (observation in words)” value is “very low”. `O=C(O)C[C@H](O)C[C@H](O)/C=C/c1c(C2CC2)nc2ccccc2c1-c1ccc(F)cc1` [L-Lysine salt, pitavastatin-lysine salt]: the “Solubility (observation in words)” value in data set [1] (starting with a buffer of pH 4.8 (entry at pH 4.5)) was “very low”.
